Laboratory results as given in patent US6727382B1, “Peroxyacids” (Unilever Patent Holdings, B.V., priority 1992, dated 2004).

Assays:
[1] = Bleaching of tea stained test cloths, reflectance at 460 nm (Example VII); conditions: 40° C., 30 minutes, 1×10^−3 mol peracid in 100 ml demineralised water, EDTA 2×10^−5 M
Procedure: (§1) Bleaching experiments were carried out in a temperature controlled glass vessel, equipped with a magnetic stirrer, thermocouple and a pH electrode, at a constant temperature of 40° C. pH was adjusted using 0.1M NaOH.
(§2) Peracid prepared according to example I was exchanged with SDS and 1×10^−3 mol added to 100 ml demineralised water and ethylene diamine tetraacteic acid (EDTA) (2×10^−5 M) in the glass vessel. Thereafter, tea stained test cloths were immersed in the solution for 30 minutes. The liquor to cloth ratio was greater than 20:1. After rinsing with tap water, the cloths were dried in a tumble drier.
(§3) Bleaching performance was determined using a Instrumental Colour Systems Micro-match to measure the reflectance, at 460 nm, of the cloths both before and after treatment. The difference (ΔR460*) in the values gives a measure of the effectiveness of the treatment.

[2] = Bleaching of tea stained test cloths with peroxyacid formed in situ with SDS or Coco-PAS (Example VIII); conditions: EDTA 2×10^−5 M, pH 10; for ΔR460* Coco-PAS: peracid 1×10^−3 mol with Coco-PAS 2×10^−3 mol in 100 ml demineralised water; for ΔR460* SDS: peracid 1×10^−3 mol with SDS 2×10^−3 mol in 100 ml demineralised water
Procedure: as §1, §2, §3
Example VI was repeated using materials prepared according to examples I-VI and the comparative example. Peracid (1×10^−3 mol) was added to a glass vessel containing 100 ml demineralised water, EDTA, (2×10^−5 M), and SDS or Coco-PAS (2×10^−3 mol), i.e cationic peroxyacids according to the invention were formed in-situ. The pH was adjusted to pH 10 using 0.1NaOH. The difference (ΔR460*) in the values gives a measure of the effectiveness of the bleaching performance.

C[N+](C)(C)CCOC(=O)Oc1ccc(S(=O)(=O)[O-])cc1 [CSPC, 2-(N,N,N-trimethylammonium)ethyl-4-sulphonyl carbonate]
ΔR460* bleaching performance ([1]; pH 7.0): 20.0 | ΔR460* bleaching performance ([1]; pH 8.0): 22.0 | ΔR460* bleaching performance ([1]; pH 9.0): 20.0

CS(=O)(=O)[O-].C[N+](C)(C)Cc1ccc(C(=O)OO)cc1 [Example I, α-Trimethylammonium-4-peroxytoluic Acid Methane Sulphonate]
ΔR460* Coco-PAS [2]: 26.7 | ΔR460* SDS [2]: 24.0

C[N+](C)(Cc1ccccc1)Cc1ccc(C(=O)OO)cc1.Cc1ccc(S(=O)(=O)[O-])cc1 [Example II, α-Benzyl-dimethylammonium-4-peroxytoluic Acid Tosylate]
ΔR460* Coco-PAS [2]: 18.9 | ΔR460* SDS [2]: 21.9

O=C(CCCCCN1C(=O)c2ccccc2C1=O)OO [PAP]
ΔR460* bleaching performance ([1]; pH 7.0): 13.0 | ΔR460* bleaching performance ([1]; pH 8.0): 13.0 | ΔR460* bleaching performance ([1]; pH 9.0): 6.0 | ΔR460* bleaching performance ([1]; pH 10.0): 4.0

CCCCCCCCC(=O)Oc1ccc(S(=O)(=O)[O-])cc1.[Na+] [SNOBS, Sodium nonoyloxybenzene sulphonate]
ΔR460* bleaching performance ([1]; pH 9.0): 7.5 | ΔR460* bleaching performance ([1]; pH 10.0): 5.0

α-Butyl-dimethylammonium-4-peroxytoluic Acid Tosylate [Example V]
ΔR460* Coco-PAS [2]: 21.8 | ΔR460* SDS [2]: 23.7

α-Heptyl-Dimethylammonium-4-Peroxytoluic Acid Tosylate [Example IV]
ΔR460* SDS [2]: 14.5

α-Octyl-dimethylammonium-4-peroxytoluic Acid Tosylate [Comparison]
ΔR460* Coco-PAS [2]: 7.6 | ΔR460* SDS [2]: 8.0

α-Pentyl-dimethylammonium-4-peroxytoluic Acid Tosylate [Example VI]
ΔR460* Coco-PAS [2]: 18.6 | ΔR460* SDS [2]: 21.9

αHexyl-dimethylammonium-4-peroxytoluic Acid Tosylate [Example III]
ΔR460* Coco-PAS [2]: 16.1 | ΔR460* SDS [2]: 23.5
